From patent EP0862417B1, “PHARMACEUTICAL COMPOSITION FOR TOPICAL APPLICATION” (Reckitt Benckiser Healthcare (UK) Limited, priority 1995, dated 1997)

Assay: Supersaturation potential of a triclosan solution (calculated from solubilities)
Type: physicochemical
Conditions: skin pH e.g. pH 5.5; 200ppm triclosan solution at pH 10 as starting composition
Protocol: The supersaturation potential of a solution at pH 10 containing 200ppm triclosan was calculated by dividing the concentration of triclosan in that solution by the concentration of triclosan in the solutions at lower pHs.

For `Oc1cc(Cl)ccc1Oc1ccc(Cl)cc1Cl` [triclosan], the “degree of supersaturation achievable at a skin pH” value was 30 X.
